Measured values reported in article PMC6199744, “Development of Chemical Proteomics for the Folateome and Analysis of the Kinetoplastid Folateome” (ACS Infectious Diseases, 2018).
Read-outs that look alike come from different tables or passages of the source.

Legend:
Assay type in all cases: binding
[1] = target: T1, HeLa cell extract proteins (Homo sapiens, UniProt P05387)
T1 construct: endogenous in cells; host or cells: HeLa cell extract

[2] = target: T2, HeLa cell extract proteins (Homo sapiens, UniProt P26038)
T2 construct: endogenous in cells; host or cells: HeLa cell extract
T2 sequence (P26038 whole entry): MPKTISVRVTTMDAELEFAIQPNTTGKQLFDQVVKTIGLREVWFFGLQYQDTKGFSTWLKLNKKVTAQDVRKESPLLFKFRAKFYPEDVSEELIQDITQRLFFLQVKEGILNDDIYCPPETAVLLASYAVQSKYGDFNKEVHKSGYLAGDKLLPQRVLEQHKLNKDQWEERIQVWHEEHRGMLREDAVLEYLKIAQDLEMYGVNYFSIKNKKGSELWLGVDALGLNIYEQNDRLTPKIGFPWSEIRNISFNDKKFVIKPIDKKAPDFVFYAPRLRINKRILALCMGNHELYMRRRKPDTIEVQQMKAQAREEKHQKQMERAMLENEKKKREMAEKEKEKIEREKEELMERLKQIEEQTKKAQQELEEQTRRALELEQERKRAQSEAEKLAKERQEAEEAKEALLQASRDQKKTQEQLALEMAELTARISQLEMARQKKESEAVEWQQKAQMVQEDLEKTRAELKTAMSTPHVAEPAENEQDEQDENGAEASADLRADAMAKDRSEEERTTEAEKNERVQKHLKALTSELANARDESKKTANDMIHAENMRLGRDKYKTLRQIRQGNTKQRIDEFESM

[3] = target: T3, HeLa cell extract proteins (Homo sapiens, UniProt Q08209)
T3 construct: endogenous in cells; host or cells: HeLa cell extract

[4] = target: T4, HeLa cell extract proteins (Homo sapiens, UniProt P30040)
T4 construct: endogenous in cells; host or cells: HeLa cell extract

[5] = target: T5, HeLa cell extract proteins (Homo sapiens, UniProt P54136)
T5 construct: endogenous in cells; host or cells: HeLa cell extract
T5 sequence (P54136 1-660): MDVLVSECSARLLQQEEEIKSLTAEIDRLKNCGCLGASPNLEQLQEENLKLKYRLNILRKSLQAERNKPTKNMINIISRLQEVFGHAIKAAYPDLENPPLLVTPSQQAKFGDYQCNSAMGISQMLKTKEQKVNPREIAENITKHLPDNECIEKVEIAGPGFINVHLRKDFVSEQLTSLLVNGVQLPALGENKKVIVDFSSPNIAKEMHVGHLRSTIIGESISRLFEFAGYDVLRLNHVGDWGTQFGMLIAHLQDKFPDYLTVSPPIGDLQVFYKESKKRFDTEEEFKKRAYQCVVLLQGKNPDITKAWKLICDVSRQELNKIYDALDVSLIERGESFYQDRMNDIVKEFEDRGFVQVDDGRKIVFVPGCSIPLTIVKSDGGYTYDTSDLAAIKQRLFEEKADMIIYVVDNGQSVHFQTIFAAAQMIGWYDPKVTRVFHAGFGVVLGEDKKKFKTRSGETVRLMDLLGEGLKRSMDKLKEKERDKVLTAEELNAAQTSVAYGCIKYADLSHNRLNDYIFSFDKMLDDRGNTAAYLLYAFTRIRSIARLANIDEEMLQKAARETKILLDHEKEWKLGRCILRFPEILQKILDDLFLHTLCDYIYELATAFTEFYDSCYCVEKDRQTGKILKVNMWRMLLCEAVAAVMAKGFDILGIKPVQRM

[6] = target: T6, HeLa cell extract proteins (Homo sapiens, UniProt Q99497)
T6 construct: endogenous in cells; host or cells: HeLa cell extract
T6 sequence (Q99497 1-189): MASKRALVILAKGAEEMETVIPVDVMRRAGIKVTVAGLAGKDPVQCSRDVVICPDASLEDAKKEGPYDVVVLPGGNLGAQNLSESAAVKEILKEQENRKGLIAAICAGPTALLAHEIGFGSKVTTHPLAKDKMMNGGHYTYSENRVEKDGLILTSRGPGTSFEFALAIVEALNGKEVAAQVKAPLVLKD

[7] = target: T7, HeLa cell extract proteins (Homo sapiens, UniProt Q9Y6M0)
T7 construct: endogenous in cells; host or cells: HeLa cell extract
T7 sequence (Q9Y6M0 42-314): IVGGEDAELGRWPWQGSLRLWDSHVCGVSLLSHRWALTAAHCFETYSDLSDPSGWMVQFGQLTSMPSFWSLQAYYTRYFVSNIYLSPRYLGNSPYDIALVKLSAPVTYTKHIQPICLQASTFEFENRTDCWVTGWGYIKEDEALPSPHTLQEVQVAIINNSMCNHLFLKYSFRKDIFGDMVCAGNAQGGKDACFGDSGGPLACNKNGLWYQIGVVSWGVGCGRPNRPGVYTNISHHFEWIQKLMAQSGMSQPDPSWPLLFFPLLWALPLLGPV

[8] = target: T8, HeLa cell extract proteins (Homo sapiens, UniProt O00330)
T8 construct: endogenous in cells; host or cells: HeLa cell extract
T8 sequence (O00330 54-501): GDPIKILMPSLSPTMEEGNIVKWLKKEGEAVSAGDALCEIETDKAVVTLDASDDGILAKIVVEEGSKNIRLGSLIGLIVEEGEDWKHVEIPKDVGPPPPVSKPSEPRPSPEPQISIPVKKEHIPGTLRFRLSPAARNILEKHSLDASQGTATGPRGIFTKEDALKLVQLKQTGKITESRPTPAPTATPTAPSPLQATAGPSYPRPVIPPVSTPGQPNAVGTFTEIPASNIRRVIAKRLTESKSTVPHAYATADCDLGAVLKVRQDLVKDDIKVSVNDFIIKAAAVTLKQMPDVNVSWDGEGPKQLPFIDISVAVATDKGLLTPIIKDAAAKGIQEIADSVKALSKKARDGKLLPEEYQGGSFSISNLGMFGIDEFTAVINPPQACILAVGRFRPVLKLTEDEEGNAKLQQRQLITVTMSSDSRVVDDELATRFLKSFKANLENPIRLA

[9] = target: T9, HeLa cell extract proteins (Homo sapiens, UniProt P37802)
T9 construct: endogenous in cells; host or cells: HeLa cell extract
T9 sequence (P37802 whole entry): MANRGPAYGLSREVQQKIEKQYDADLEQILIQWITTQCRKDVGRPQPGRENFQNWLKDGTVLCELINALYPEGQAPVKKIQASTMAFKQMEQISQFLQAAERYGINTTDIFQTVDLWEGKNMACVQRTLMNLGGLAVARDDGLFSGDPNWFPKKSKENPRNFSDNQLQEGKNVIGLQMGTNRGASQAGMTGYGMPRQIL

[10] = target: T10, HeLa cell extract proteins (Homo sapiens, UniProt P30086)
T10 construct: endogenous in cells; host or cells: HeLa cell extract
T10 sequence (P30086 whole entry): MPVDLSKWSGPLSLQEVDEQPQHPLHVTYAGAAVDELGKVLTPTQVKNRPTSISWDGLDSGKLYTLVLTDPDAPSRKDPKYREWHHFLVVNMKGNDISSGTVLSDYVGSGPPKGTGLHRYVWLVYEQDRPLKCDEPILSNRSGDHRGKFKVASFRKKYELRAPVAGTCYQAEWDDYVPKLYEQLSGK

[11] = target: T11, HeLa cell extract proteins (Homo sapiens, UniProt Q92734)
T11 construct: endogenous in cells; host or cells: HeLa cell extract
T11 sequence (Q92734 whole entry): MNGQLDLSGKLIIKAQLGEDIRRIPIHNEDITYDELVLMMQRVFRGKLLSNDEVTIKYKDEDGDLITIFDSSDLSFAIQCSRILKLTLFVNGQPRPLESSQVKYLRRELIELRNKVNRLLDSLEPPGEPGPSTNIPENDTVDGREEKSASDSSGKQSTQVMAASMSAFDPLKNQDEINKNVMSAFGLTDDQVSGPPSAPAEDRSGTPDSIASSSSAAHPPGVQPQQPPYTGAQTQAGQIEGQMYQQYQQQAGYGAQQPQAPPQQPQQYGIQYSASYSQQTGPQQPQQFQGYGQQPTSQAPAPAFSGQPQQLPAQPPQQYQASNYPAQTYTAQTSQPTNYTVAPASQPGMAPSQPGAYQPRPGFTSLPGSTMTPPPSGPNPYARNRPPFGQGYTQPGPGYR

[12] = HeLa, protein PDHX (PYRUVATE DEH[…] X COMPONENT, MIT[…])
[13] = HeLa, protein DJ-1 (PROTEIN DJ-1.)

T1 sequence (P05387 whole entry): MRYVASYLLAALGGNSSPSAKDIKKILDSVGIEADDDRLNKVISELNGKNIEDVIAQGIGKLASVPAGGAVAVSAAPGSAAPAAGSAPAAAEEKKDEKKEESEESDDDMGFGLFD

Compound	fold changes relative to vehicle control ([1]; protein RPLP2, HeLa)	fold changes relative to vehicle control ([2]; HeLa, protein MSN)	fold changes relative to vehicle control ([3]; HeLa, protein PPP3CA)	fold changes relative to vehicle control ([4]; protein ERP29, HeLa)	fold changes relative to vehicle control ([5]; HeLa, captured protein RARS)	fold changes relative to vehicle control ([6]; HeLa, captured protein DJ-1)	fold changes relative to vehicle control ([7]; HeLa, protein PRSS21)	fold changes relative to vehicle control ([9]; HeLa, protein TAGLN2)	fold changes relative to vehicle control ([10]; HeLa, protein PEBP1)	fold changes relative to vehicle control ([11]; HeLa, captured protein TFG)	fold changes relative to vehicle control ([2]; protein MSN, HeLa)	fold changes relative to vehicle control ([5]; protein RARS, HeLa)	fold changes relative to vehicle control [6, 13]	fold changes relative to vehicle control ([8]; protein PDHX, HeLa)	fold changes relative to vehicle control ([9]; protein TAGLN2, HeLa)	fold changes relative to vehicle control ([10]; protein PEBP1, HeLa)	fold changes relative to vehicle control ([11]; protein TFG, HeLa)	other results
Nc1nc2c(c(=O)[nH]1)N(C=O)C(CNc1ccc(C(=O)N[C@@H](CCC(=O)O)C(=O)O)cc1)CN2 (some centres unmarked) [LEU, leucovorin]	0.82	0.93	0.97	0.97	0.97	1.1	1	0.97	0.89	1.01								fold changes relative to vehicle control [8, 12]: 1.05
Nc1nc2[nH]cc(CCc3ccc(C(=O)N[C@@H](CCC(=O)O)C(=O)O)cc3)c2c(=O)[nH]1 [PTX, pemetrexed]																		fold changes relative to vehicle control [1]: 0.94; fold changes relative to vehicle control [2]: 0.97; fold changes relative to vehicle control [3]: 0.91; fold changes relative to vehicle control [4]: 0.96; fold changes relative to vehicle control [5]: 0.93; fold changes relative to vehicle control [6]: 1.28; fold changes relative to vehicle control [7]: 0.89; fold changes relative to vehicle control [8]: 0.98; fold changes relative to vehicle control [9]: 1.18; fold changes relative to vehicle control [10]: 1.14; fold changes relative to vehicle control [11]: 1.05
CCCCCCOc1ccc(Cc2cnc(N)nc2N)cc1 [compound 1]	0.76		1.1	1.29			1.11				1.07	0.9	1.34 fold	1	1.17	1.23	0.96	
CCCCCCOc1cccc(Cc2cnc(N)nc2N)c1 [compound 2]	1.65		1.13	1.77			1.18				1.81	1.19	2.24 fold	0.43	1.66	1.9	1.16	
Nc1nc2cccc(-c3ccccc3)c2n1Cc1ccc(Cl)c(Cl)c1 [compound 3]	0.81		1.03	0.94			1.04				0.77	0.94	0.85 fold	1.12	0.85	1.08	1.02	
NCCOCCOCC(=O)Nc1nc2ncc(CNc3ccc(C(=O)NC(CCC(=O)O)C(=O)O)cc3)nc2c(=O)[nH]1 (centres unmarked) [compound 6]	1.04	1.08	0.95	1.24	0.99	1.36	0.96	1.2	1.42	1.01								fold changes relative to vehicle control ([8]; HeLa, protein PDHX (PYRUVATE DEHYDROGENASE PROTEIN X COMPONENT, MITOCHONDRIAL PRECURSOR)): 0.92
NCCCNc1ccc(C(=O)NC(CCC(=O)O)C(=O)O)cc1 (centres unmarked) [compound 7]	0.82	0.81	0.85	0.88	0.96	1.06	0.97	0.92	1.07	1.06								fold changes relative to vehicle control [8, 12]: 1.02
